Measurements as given in BigSolDB 2.1.

c1ccc(-c2ccc(C(c3ccccc3)n3ccnc3)cc2)cc1 (stereo not given)
solubility (mole fraction)
Settings | 278.15 K | 283.15 K | 288.15 K | 293.15 K | 298.15 K | 303.15 K | 308.15 K | 313.15 K | 318.15 K
in isopropanol | 0.00118 | 0.00165 | 0.00222 | 0.00309 | 0.0041 | 0.00554 | 0.00722 | 0.00951 | 0.0123
in methanol | 0.00228 | 0.00304 | 0.00395 | 0.00517 | 0.0066 | 0.00844 | 0.0106 | 0.0135 | 0.0166
in n-propanol | 0.00142 | 0.00196 | 0.00266 | 0.00355 | 0.00468 | 0.00612 | 0.00799 | 0.0106 | 0.0134
in propylene glycol | 0.0017 | 0.00233 | 0.00316 | 0.00418 | 0.00547 | 0.00707 | 0.00916 | 0.0117 | 0.0149
in water | 6.6e-06 | 9.22e-06 | 1.27e-05 | 1.7e-05 | 2.05e-05 | 2.88e-05 | 3.87e-05 | 4.82e-05 | 6.11e-05
